Measurements: US9833497B2, “Human originated EGF domain proteins and use of the same” (CHENGDU SOURCEBIO LIMITED-LIABILITY COMPANY, priority 2013, dated 2017)

Tests used:
Format in all cases: cell-based
E. coli DH5α = experiment: Antibacterial activity: MIC and growth curve against E. coli DH5α in 96-well plate; conditions: minimal inhibitory concentration against E. coli DH5α; 96-well plate, 5×10^5 CFU/mL, 37° C., judged after 8 h
In short: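 MIC taken as lowest protein level with no bacterial growth, tracked by A600 every 30 min during 37 °C, 175 rpm culture. Two-fold protein series 50-12.5 μg/mL final, triplicate wells, against 5×10^5 CFU/mL of LB-washed mid-log cells.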

E. coli BL21 = experiment: MIC against Gram-negative bacteria: E. coli BL21; conditions: for MIC E. coli BL21 / MIC (μg/mL) E. coli BL21 / MIC against E. coli BL21: 5×10^5 CFU/mL; for MIC E. coli BL21: two-fold serial dilution
In short: (§1)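 First, colonies from LB agar were grown in LB at 37° C, 185 rpm, to McFarland turbidity 0.5, then centrifuged and resuspended in fresh LB. Next, wells received 5×10^5 CFU/mL bacteria plus two-fold serially diluted EGF domain protein (triplicate). Finally, plates were shaken at 37° C and the no-growth concentration taken as MIC.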

Pseudomonas aeruginosa = experiment: MIC against Gram-negative bacteria: Pseudomonas aeruginosa; conditions: for MIC P. aeruginosa / MIC (μg/mL) P. aeruginosa / MIC against P. aeruginosa: 5×10^5 CFU/mL; for MIC P. aeruginosa: two-fold serial dilution
In short: as §1

Klebsiella pneumonia = experiment: MIC against Gram-negative bacteria: Klebsiella pneumonia; conditions: for MIC K. pneumonia / MIC (μg/mL) K. pneumonia / MIC against K. pneumonia: 5×10^5 CFU/mL; for MIC K. pneumonia: two-fold serial dilution
In short: as §1

Enterobacter cloacae = experiment: MIC against Gram-negative bacteria: Enterobacter cloacae; conditions: for MIC E. cloacae / MIC (μg/mL) E. cloacae / MIC against E. cloacae: 5×10^5 CFU/mL; for MIC E. cloacae: two-fold serial dilution
In short: as §1

Aeromonas hydrophila = experiment: MIC against Gram-negative bacteria: Aeromonas hydrophila; conditions: for MIC A. hydrophila / MIC (μg/mL) A. hydrophila / MIC against A. hydrophila: 5×10^5 CFU/mL; for MIC A. hydrophila: two-fold serial dilution
In short: as §1

Citrobacter diversus = experiment: MIC against Gram-negative bacteria: Citrobacter diversus; conditions: for MIC C. diversus / MIC (μg/mL) C. diversus / MIC against C. diversus: 5×10^5 CFU/mL; for MIC C. diversus: two-fold serial dilution
In short: as §1

Moraxella catarrhalis = experiment: MIC against Gram-negative bacteria: Moraxella catarrhalis; conditions: for MIC M. catarrhalis / MIC (μg/mL) M. catarrhalis / MIC against M. catarrhalis: 5×10^5 CFU/mL; for MIC M. catarrhalis: two-fold serial dilution
In short: as §1

Proteus mirabilis = experiment: MIC against Gram-negative bacteria: Proteus mirabilis; conditions: for MIC P. mirabilis / MIC (μg/mL) P. mirabilis / MIC against P. mirabilis: 5×10^5 CFU/mL; for MIC P. mirabilis: two-fold serial dilution
In short: as §1

Proteus vulgaris = experiment: MIC against Gram-negative bacteria: Proteus vulgaris; conditions: for MIC P. vulgaris / MIC (μg/mL) P. vulgaris / MIC against P. vulgaris: 5×10^5 CFU/mL; for MIC P. vulgaris: two-fold serial dilution
In short: as §1

Serratia marcescens = experiment: MIC against Gram-negative bacteria: Serratia marcescens; conditions: for MIC S. marcescens / MIC (μg/mL) S. marcescens / MIC against S. marcescens: 5×10^5 CFU/mL; for MIC S. marcescens: two-fold serial dilution
In short: as §1

[1] = E. coli BL21, 10 h cultivation at 37° C.
[2] = P. aeruginosa, 10 h cultivation at 37° C.
[3] = K. pneumonia, 10 h cultivation at 37° C.
[4] = E. cloacae, 10 h cultivation at 37° C.
[5] = A. hydrophila, 10 h cultivation at 37° C.
[6] = C. diversus, 10 h cultivation at 37° C.
[7] = M. catarrhalis, 10 h cultivation at 37° C.
[8] = P. mirabilis, 10 h cultivation at 37° C.
[9] = P. vulgaris, 10 h cultivation at 37° C.
[10] = S. marcescens, 10 h cultivation at 37° C.

## PRT1080 (IQSYCAKHLKCSQKCDQNKFSVKCSCYEGWVLEPDGESCR; listed as Homo sapiens)
E. coli DH5α
  MIC: 50 µg/mL
E. coli BL21; 10 h cultivation at 37° C.
  MIC E. coli BL21: 25 µg/mL
Pseudomonas aeruginosa; 10 h cultivation at 37° C.
  MIC P. aeruginosa: 12.5 µg/mL
Klebsiella pneumonia; 10 h cultivation at 37° C.
  MIC K. pneumonia: 25 µg/mL
Enterobacter cloacae; 10 h cultivation at 37° C.
  MIC E. cloacae: 50 µg/mL
Aeromonas hydrophila; 10 h cultivation at 37° C.
  MIC A. hydrophila: 12.5 µg/mL
Citrobacter diversus; 10 h cultivation at 37° C.
  MIC C. diversus: 12.5 µg/mL
Moraxella catarrhalis; 10 h cultivation at 37° C.
  MIC M. catarrhalis: 12.5 µg/mL
Proteus mirabilis; 10 h cultivation at 37° C.
  MIC P. mirabilis: 12.5 µg/mL
Proteus vulgaris; 10 h cultivation at 37° C.
  MIC P. vulgaris: 25 µg/mL
Serratia marcescens; 10 h cultivation at 37° C.
  MIC S. marcescens: 50 µg/mL

## PRT1173 (KCIPHPGCVHGICNEPWQCLCETNWGGQLCD; listed as Homo sapiens)
E. coli DH5α
  MIC: 12.5 µg/mL
E. coli BL21; 10 h cultivation at 37° C.
  MIC E. coli BL21: 25 µg/mL
Pseudomonas aeruginosa; 10 h cultivation at 37° C.
  MIC P. aeruginosa: 12.5 µg/mL
Klebsiella pneumonia; 10 h cultivation at 37° C.
  MIC K. pneumonia: 25 µg/mL
Enterobacter cloacae; 10 h cultivation at 37° C.
  MIC E. cloacae: 12.5 µg/mL
Aeromonas hydrophila; 10 h cultivation at 37° C.
  MIC A. hydrophila: 12.5 µg/mL
Citrobacter diversus; 10 h cultivation at 37° C.
  MIC C. diversus: 50 µg/mL
Moraxella catarrhalis; 10 h cultivation at 37° C.
  MIC M. catarrhalis: 12.5 µg/mL
Proteus mirabilis; 10 h cultivation at 37° C.
  MIC P. mirabilis: 50 µg/mL
Proteus vulgaris; 10 h cultivation at 37° C.
  MIC P. vulgaris: 12.5 µg/mL
Serratia marcescens; 10 h cultivation at 37° C.
  MIC S. marcescens: 50 µg/mL

## PRT805 (FGQNCSQDCPCHHGGQCDHVTGQCHCTAGYMGDRCQ; listed as Homo sapiens)
E. coli DH5α
  MIC: 12.5 µg/mL
E. coli BL21; [1]
  MIC (μg/mL) E. coli BL21: 50 µg/mL
Pseudomonas aeruginosa; [2]
  MIC (μg/mL) P. aeruginosa: 12.5 µg/mL
Klebsiella pneumonia; [3]
  MIC (μg/mL) K. pneumonia: 12.5 µg/mL
Enterobacter cloacae; [4]
  MIC (μg/mL) E. cloacae: 12.5 µg/mL
Aeromonas hydrophila; [5]
  MIC (μg/mL) A. hydrophila: 12.5 µg/mL
Citrobacter diversus; [6]
  MIC (μg/mL) C. diversus: 12.5 µg/mL
Moraxella catarrhalis; [7]
  MIC (μg/mL) M. catarrhalis: 50 µg/mL
Proteus mirabilis; [8]
  MIC (μg/mL) P. mirabilis: 12.5 µg/mL
Proteus vulgaris; [9]
  MIC (μg/mL) P. vulgaris: 50 µg/mL
Serratia marcescens; [10]
  MIC (μg/mL) S. marcescens: 12.5 µg/mL

## PRT487 (SLCDLQPDFCLNDGKCDIMPGHGAICRCRVGENWWYRGKHCE; listed as Homo sapiens)
E. coli DH5α
  MIC: 12.5 µg/mL
E. coli BL21; 96-well plate, 37° C., 10 h
  MIC against E. coli BL21: 25 µg/mL
Pseudomonas aeruginosa; 96-well plate, 37° C., 10 h
  MIC against P. aeruginosa: 12.5 µg/mL
Klebsiella pneumonia; 96-well plate, 37° C., 10 h
  MIC against K. pneumonia: 25 µg/mL
Enterobacter cloacae; 96-well plate, 37° C., 10 h
  MIC against E. cloacae: 12.5 µg/mL
Aeromonas hydrophila; 96-well plate, 37° C., 10 h
  MIC against A. hydrophila: 25 µg/mL
Citrobacter diversus; 96-well plate, 37° C., 10 h
  MIC against C. diversus: 12.5 µg/mL
Moraxella catarrhalis; 96-well plate, 37° C., 10 h
  MIC against M. catarrhalis: 25 µg/mL
Proteus mirabilis; 96-well plate, 37° C., 10 h
  MIC against P. mirabilis: 12.5 µg/mL
Proteus vulgaris; 96-well plate, 37° C., 10 h
  MIC against P. vulgaris: 50 µg/mL
Serratia marcescens; 96-well plate, 37° C., 10 h
  MIC against S. marcescens: 12.5 µg/mL

## PRT748 (YTASCQPWSCSGHGECVEIINNYTCNCDVGYYGPQCQ; listed as Homo sapiens)
E. coli DH5α
  MIC: 50 µg/mL
E. coli BL21; [1]
  MIC (μg/mL) E. coli BL21: 25 µg/mL
Pseudomonas aeruginosa; [2]
  MIC (μg/mL) P. aeruginosa: 12.5 µg/mL
Klebsiella pneumonia; [3]
  MIC (μg/mL) K. pneumonia: 25 µg/mL
Enterobacter cloacae; [4]
  MIC (μg/mL) E. cloacae: 50 µg/mL
Aeromonas hydrophila; [5]
  MIC (μg/mL) A. hydrophila: 12.5 µg/mL
Citrobacter diversus; [6]
  MIC (μg/mL) C. diversus: 50 µg/mL
Moraxella catarrhalis; [7]
  MIC (μg/mL) M. catarrhalis: 12.5 µg/mL
Proteus mirabilis; [8]
  MIC (μg/mL) P. mirabilis: 50 µg/mL
Proteus vulgaris; [9]
  MIC (μg/mL) P. vulgaris: 12.5 µg/mL
Serratia marcescens; [10]
  MIC (μg/mL) S. marcescens: 25 µg/mL

## PRT1400 (VCSVDCGTHGVCIGGACRCEEGWTGAACD; listed as Homo sapiens)
E. coli DH5α
  MIC: 50 µg/mL
E. coli BL21; [1]
  MIC against E. coli BL21: 12.5 µg/mL
Pseudomonas aeruginosa; Pseudomonas aeruginosa, 10 h cultivation at 37° C.
  MIC against P. aeruginosa: 50 µg/mL
Klebsiella pneumonia; Klebsiella pneumonia, 10 h cultivation at 37° C.
  MIC against K. pneumonia: 12.5 µg/mL
Enterobacter cloacae; Enterobacter cloacae, 10 h cultivation at 37° C.
  MIC against E. cloacae: 25 µg/mL
Aeromonas hydrophila; Aeromonas hydrophila, 10 h cultivation at 37° C.
  MIC against A. hydrophila: 50 µg/mL
Citrobacter diversus; Citrobacter diversus, 10 h cultivation at 37° C.
  MIC against C. diversus: 12.5 µg/mL
Moraxella catarrhalis; Moraxella catarrhalis, 10 h cultivation at 37° C.
  MIC against M. catarrhalis: 50 µg/mL
Proteus mirabilis; Proteus mirabilis, 10 h cultivation at 37° C.
  MIC against P. mirabilis: 12.5 µg/mL
Proteus vulgaris; Proteus vulgaris, 10 h cultivation at 37° C.
  MIC against P. vulgaris: 12.5 µg/mL
Serratia marcescens; Serratia marcescens, 10 h cultivation at 37° C.
  MIC against S. marcescens: 25 µg/mL

## PRT975 (LVDWCSRQPCQNGGRCVQTGAYCLCPPGWSGRLCD; listed as Homo sapiens)
E. coli DH5α
  MIC: 25 µg/mL
E. coli BL21; [1]
  MIC: 12.5 µg/mL
Pseudomonas aeruginosa; [2]
  MIC: 50 µg/mL
Klebsiella pneumonia; [3]
  MIC: 12.5 µg/mL
Enterobacter cloacae; [4]
  MIC: 25 µg/mL
Aeromonas hydrophila; [5]
  MIC: 50 µg/mL
Citrobacter diversus; [6]
  MIC: 12.5 µg/mL
Moraxella catarrhalis; [7]
  MIC: 12.5 µg/mL
Proteus mirabilis; [8]
  MIC: 50 µg/mL
Proteus vulgaris; [9]
  MIC: 12.5 µg/mL
Serratia marcescens; [10]
  MIC: 25 µg/mL
